Active and inactive are the calls of the source. No cut-off for these calls is given here.

Holding throughout (type): functional, cell-based
Conditions in all cases: Oocyte

Assay [1] has as its target Acetylcholine receptor subunit alpha (Homo sapiens) (UniProt P02708). Nature of the assay: Agonist activity to alpha-1-beta-1-epsilon-delta nAChR expressed in Xenopus oocytes assessed as response current at 100 uM by two-electrode voltage clamp relative to acetylcholine. Background: Two-electrode voltage clamp is typically applied to oocytes expressing channels or transporters.

For assay [2], the target named is Neuronal acetylcholine receptor subunit alpha-7 (Homo sapiens) (UniProt P36544). As to the kind of experiment: Agonist activity to alpha7 nAChR expressed in Xenopus oocytes assessed as response current at 1mM by two-electrode voltage clamp relative to acetylcholine.
Assay [3] concerns the target Neuronal acetylcholine receptor; alpha4/beta2 (Homo sapiens) (UniProt P17787+P43681). As to the kind of experiment: Agonist activity to alpha4beta2 nAChR expressed in Xenopus oocytes assessed as response current at 100 uM by two-electrode voltage clamp relative to acetylcholine.
In assay [4] the target is Neuronal acetylcholine receptor subunit alpha-7 (Homo sapiens) (UniProt P36544). Nature of the assay: Agonist activity to alpha7 nAChR expressed in Xenopus oocytes assessed as response current at 100 uM by two-electrode voltage clamp relative to acetylcholine.
The target of assay [5] is Neuronal acetylcholine receptor; alpha3/beta4 (Homo sapiens) (UniProt P30926+P32297). As to the kind of experiment: Agonist activity to alpha3beta4 nAChR expressed in Xenopus oocytes assessed as response current at 100 uM by two-electrode voltage clamp relative to acetylcholine.
In assay [6] the target is Neuronal acetylcholine receptor subunit alpha-7 (Homo sapiens) (UniProt P36544). Nature of the assay: Agonist activity to alpha7 nAChR expressed in Xenopus oocytes assessed as response current by two-electrode voltage clamp relative to acetylcholine.

Sequence of Acetylcholine receptor subunit alpha (Homo sapiens) (P02708 whole entry): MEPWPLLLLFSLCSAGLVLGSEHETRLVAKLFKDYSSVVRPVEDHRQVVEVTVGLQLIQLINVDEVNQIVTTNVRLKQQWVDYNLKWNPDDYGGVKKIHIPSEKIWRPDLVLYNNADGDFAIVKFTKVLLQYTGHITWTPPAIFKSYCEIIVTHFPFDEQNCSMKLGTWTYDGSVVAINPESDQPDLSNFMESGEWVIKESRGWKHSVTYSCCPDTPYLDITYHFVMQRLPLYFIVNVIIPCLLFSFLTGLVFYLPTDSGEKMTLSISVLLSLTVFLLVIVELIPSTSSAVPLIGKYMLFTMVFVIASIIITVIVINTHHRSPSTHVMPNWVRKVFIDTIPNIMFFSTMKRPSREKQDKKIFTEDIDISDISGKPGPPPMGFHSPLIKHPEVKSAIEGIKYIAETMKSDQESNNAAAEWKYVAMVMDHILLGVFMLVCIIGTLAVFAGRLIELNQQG
Sequence of Neuronal acetylcholine receptor subunit alpha-7 (Homo sapiens) (P36544 whole entry): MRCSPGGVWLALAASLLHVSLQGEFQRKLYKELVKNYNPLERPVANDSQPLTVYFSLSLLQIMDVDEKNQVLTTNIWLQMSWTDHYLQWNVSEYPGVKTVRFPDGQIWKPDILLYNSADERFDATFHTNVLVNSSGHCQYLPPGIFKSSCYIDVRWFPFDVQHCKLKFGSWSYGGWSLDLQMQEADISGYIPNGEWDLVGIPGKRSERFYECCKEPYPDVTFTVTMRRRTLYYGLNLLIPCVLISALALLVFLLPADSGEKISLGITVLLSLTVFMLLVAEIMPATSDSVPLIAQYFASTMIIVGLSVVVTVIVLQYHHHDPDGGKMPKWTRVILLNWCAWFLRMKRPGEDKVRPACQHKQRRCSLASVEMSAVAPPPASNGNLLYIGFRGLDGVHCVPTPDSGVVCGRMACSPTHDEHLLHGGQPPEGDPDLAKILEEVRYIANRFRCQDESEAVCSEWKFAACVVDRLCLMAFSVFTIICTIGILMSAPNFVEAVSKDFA

For the molecule `C(=C1/CCCN=C1c1cccnc1)/c1ccccn1`, the outcome in assay [1] and in assay [3] was inactive. The Activity in assay [2] is under 20%.

For the molecule `C(=C1/CCCN=C1c1cccnc1)/c1ccc[nH]1`, the outcome in assay [1] and in assay [3] was inactive. The Activity in assay [4] worked out at 40%.

With `C(=C1/CCCN=C1c1cccnc1)/c1ccncc1`, the outcome in assay [1] and in assay [3] was inactive. Besides, the Activity in assay [2] was under 20%.

Turning to `C(=C1/CCCN=C1c1cccnc1)/c1cc[nH]c1`, the Activity in assay [4] is 40%; in assay [5] it was 5%.

With `C(=C1/CCCN=C1c1cccnc1)/c1cccnc1`, the outcome in assay [1] and in assay [3] was inactive. Further, the Activity in assay [4] was 35%. Moreover, the ED50 in assay [6] was 100 µM.
